IC50 data for 18 compounds are collected here from patent US9540397B2, “BACE1 inhibitors” (Hoffmann-La Roche Inc., priority 2014, dated 2017).

For this test, the target named is T1, BACE1 (Homo sapiens, UniProt P56817).
T1 construct: endogenous in cells; host or cells: HEK293 APP cells
T1 sequence (P56817 46-501): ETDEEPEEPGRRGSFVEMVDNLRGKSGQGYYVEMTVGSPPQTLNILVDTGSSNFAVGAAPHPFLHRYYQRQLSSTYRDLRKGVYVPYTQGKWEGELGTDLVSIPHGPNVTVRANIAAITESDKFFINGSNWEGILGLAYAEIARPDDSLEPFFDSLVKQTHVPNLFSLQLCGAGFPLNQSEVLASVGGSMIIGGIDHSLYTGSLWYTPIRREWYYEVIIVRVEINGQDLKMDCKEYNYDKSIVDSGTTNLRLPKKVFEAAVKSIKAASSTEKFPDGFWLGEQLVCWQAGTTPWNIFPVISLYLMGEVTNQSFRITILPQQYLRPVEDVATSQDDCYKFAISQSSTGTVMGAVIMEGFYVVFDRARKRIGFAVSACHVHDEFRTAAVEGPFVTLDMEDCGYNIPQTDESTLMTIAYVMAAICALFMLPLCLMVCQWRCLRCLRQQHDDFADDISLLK
Nature of the test: Cellular Aβ-lowering assay (Abeta 40 AlphaLISA, HEK293 APP cells). It is filed as cell-based. The following applies: 18-20 hrs incubation, Aβ40 in culture supernatant, read-out: BACE1 cell act. Aβ40 IC50. How it is done: Cellular Aβ-lowering assay:
The Abeta 40 AlphaLISA Assay can be used. The HEK293 APP cells were seeded in 96 well Microtiter plates in cell culture medium (Iscove's, plus 10% (v/v) fetal bovine serum, penicillin/streptomycin) to about 80% confluency and the compounds were added at a 3× concentration in ⅓ volume of culture medium (final DMSO concentration was kept at 1% v/v). After 18-20 hrs incubation at 37° C. and 5% CO2 in a humidified incubator, the culture supernatants were harvested for the determination of AP 40 concentrations using Perkin-Elmer Human Amyloid beta 1-40 (high specificity) Kit (Cat#AL275C).
In a Perkin-Elmer White Optiplate-384 (Cat#6007290), 2 ul culture supernatants were combined with 2 μl of a 10× AlphaLISA Anti-hAβ Acceptor beads+Biotinylated Antibody Anti-Aβ 1-40 Mix ([…]/5 nM). After 1 hour room temperature incubation, 16 μl of a 1.25× preparation of Streptavidin (SA) Donor beads (25 μg/mL) were added and incubated for 30 minutes in the Dark. Light Emission at 615 nm was then recorded using EnVision-Alpha Reader. Levels of Aβ 40 in the culture supernatants were calculated as percentage of maximum signal (cells treated with 1% DMSO without inhibitor). The IC50 values were calculated using the Excel XLfit software.
A general note: In Alpha technology, singlet oxygen from a donor bead excites a nearby acceptor bead.
In the case of `CC1(C)C(N)=N[C@](C)(c2nc(NC(=O)c3ncc(F)cc3Cl)ccc2F)[C@H]2CCN=[S@]21=O` [Example 11BA, N-(6-((3aR,4R,8S)-6-amino-4,7,7-trimethyl-8-oxido-3,3a,4,7-tetrahydro-2H-isothiazolo[1,5-a][1,4]thiazin-4-yl)-5-fluoropyridin-2-yl)-3-chloro-5-fluoropicolinamide], the IC50 (in general, the point on the concentration scale where inhibition reaches its midpoint) amounted to 117 nM.

With `CC1(C)C(N)=N[C@](C)(c2nc(NC(=O)c3nn(C(F)F)cc3Cl)ccc2F)[C@@H]2CCN=[S@@]21=O` [Example 51AB, N-(6-((3aS,4R,8R)-6-amino-4,7,7-trimethyl-8-oxido-3,3a,4,7-tetrahydro-2H-isothiazolo[1,5-a][1,4]thiazin-4-yl)-5-fluoropyridin-2-yl)-4-chloro-1-(difluoromethyl)-1H-pyrazole-3-carboxamide], the IC50 is below 10 nM.

Consider `Cc1cc(Cl)cnc1C(=O)Nc1ccc(F)c([C@@]2(C)N=C(N)C(C)(C)[S@]3(=O)=NCC[C@H]23)n1` [Example 12BA, N-(6-((3aR,4R,8S)-6-amino-4,7,7-trimethyl-8-oxido-3,3a,4,7-tetrahydro-2H-isothiazolo[1,5-a][1,4]thiazin-4-yl)-5-fluoropyridin-2-yl)-5-chloro-3-methylpicolinamide], for which the IC50 amounted to 24.2 nM.

On to `CC1(C)C(N)=N[C@](C)(c2nc(NC(=O)c3ccc(OC(F)F)cn3)ccc2F)[C@H]2CCN=[S@]21=O` [Example 14BA, N-(6-((3aR,4R,8S)-6-amino-4,7,7-trimethyl-8-oxido-3,3a,4,7-tetrahydro-2H-isothiazolo[1,5-a][1,4]thiazin-4-yl)-5-fluoropyridin-2-yl)-5-(difluoromethoxy)picolinamide], for which the IC50 is 52.6 nM.

`CC1(C)C(N)=N[C@](C)(c2nc(NC(=O)c3ccc(F)cn3)ccc2F)[C@H]2CCN=[S@]21=O` [Example 27BA, N-(6-((3aR,4R,8S)-6-amino-4,7,7-trimethyl-8-oxido-3,3a,4,7-tetrahydro-2H-isothiazolo[1,5-a][1,4]thiazin-4-yl)-5-fluoropyridin-2-yl)-5-fluoropicolinamide]: the IC50 is 118 nM.

Regarding `CC1(C)C(N)=N[C@](C)(c2nc(NC(=O)c3ccc(C#N)cc3)ccc2F)[C@@H]2CCN=[S@@]21=O` [Example 30AB, N-(6-((3aS,4R,8R)-6-amino-4,7,7-trimethyl-8-oxido-3,3a,4,7-tetrahydro-2H-isothiazolo[1,5-a][1,4]thiazin-4-yl)-5-fluoropyridin-2-yl)-4-cyanobenzamide], the IC50 stood at 14 nM.

In the case of `CC1(C)C(N)=N[C@](C)(c2nc(NC(=O)c3ccc(OCF)cn3)ccc2F)[C@H]2CCN=[S@]21=O` [Example 13BA, N-(6-((3aR,4R,8S)-6-amino-4,7,7-trimethyl-8-oxido-3,3a,4,7-tetrahydro-2H-isothiazolo[1,5-a][1,4]thiazin-4-yl)-5-fluoropyridin-2-yl)-5-(fluoromethoxy)picolinamide], the IC50 came to 382 nM.

For the compound `CC1(C)C(N)=N[C@](C)(c2nc(NC(=O)c3ccc(OCC(F)(F)C(F)F)cn3)ccc2F)[C@H]2CCN=[S@]21=O` [Example 15BA, N-(6-((3aR,4R,8S)-6-amino-4,7,7-trimethyl-8-oxido-3,3a,4,7-tetrahydro-2H-isothiazolo[1,5-a][1,4]thiazin-4-yl)-5-fluoropyridin-2-yl)-5-(2,2,3,3-tetrafluoropropoxy)picolinamide], the IC50 was determined as 557 nM.

For `COc1cnc(C(=O)Nc2ccc(F)c([C@@]3(C)N=C(N)C(C)(C)[S@@]4(=O)=NCC(F)(F)C[C@H]34)n2)cn1` [Example 38AA, N-(6-((4aR,5R,9R)-7-amino-3,3-difluoro-5,8,8-trimethyl-9-oxido-2,3,4,4a,5,8-hexahydro-[1,4]thiazino[2,1-f][1,2]thiazin-5-yl)-5-fluoropyridin-2-yl)-5-methoxypyrazine-2-carboxamide], the IC50 came to 295 nM.

In the case of `Cc1cc(C#N)cnc1C(=O)Nc1ccc(F)c([C@@]2(C)N=C(N)C(C)(C)[S@@]3(=O)=NCC4(CC4)C[C@@H]23)n1` [Example 48AB, N-(6-((4aS,5R,9R)-7-amino-5,8,8-trimethyl-9-oxido-4,4a,5,8-tetrahydro-2H-spiro[[1,4]-thiazino[2,1-f][1,2]thiazine-3,1′-cyclopropan]-5-yl)-5-fluoropyridin-2-yl)-5-cyano-3-methylpicolinamide], the IC50 came out at 13 nM.

Regarding `Cc1cc(F)cnc1C(=O)Nc1ccc(F)c([C@@]2(C)N=C(N)C(C)(C)[S@]3(=O)=NCC[C@H]23)n1` [Example 10BA, N-(6-((3aR,4R,8S)-6-amino-4,7,7-trimethyl-8-oxido-3,3a,4,7-tetrahydro-2H-isothiazolo[1,5-a][1,4]thiazin-4-yl)-5-fluoropyridin-2-yl)-5-fluoro-3-methylpicolinamide], the IC50 came to 420 nM.

As to `CC#Cc1ccc(C(=O)Nc2ccc(F)c([C@@]3(C)N=C(N)C(C)(C)[S@@]4(=O)=NCC(F)(F)C[C@H]34)n2)nc1` [Example 47AA, N-(6-((4aR,5R,9R)-7-amino-3,3-difluoro-5,8,8-trimethyl-9-oxido-2,3,4,4a,5,8-hexahydro-[1,4]thiazino[2,1-f][1,2]thiazin-5-yl)-5-fluoropyridin-2-yl)-5-(prop-1-yn-1-yl)picolinamide], the IC50 was found to be 147 nM.

Regarding `CC1(C)C(N)=N[C@](C)(c2nc(NC(=O)c3ccc(C#N)cc3Cl)ccc2F)[C@@H]2CCN=[S@@]21=O` [Example 31AB, N-(6-((3aS,4R,8R)-6-amino-4,7,7-trimethyl-8-oxido-3,3a,4,7-tetrahydro-2H-isothiazolo[1,5-a][1,4]thiazin-4-yl)-5-fluoropyridin-2-yl)-2-chloro-4-cyanobenzamide], the IC50 came out at 34 nM.

Turning to `CC1(C)C(N)=N[C@](C)(c2nc(NC(=O)c3ccc(C(=O)O)cn3)ccc2F)[C@H]2CC(F)(F)CN=[S@@]21=O` [Example 44AA, 6-((6-((4aR,5R,9R)-7-amino-3,3-difluoro-5,8,8-trimethyl-9-oxido-2,3,4,4a,5,8-hexahydro-[1,4]thiazino[2,1-f][1,2]thiazin-5-yl)-5-fluoropyridin-2-yl)carbamoyl)nicotinic acid], the IC50 was above 40 nM.

Consider `CC1(C)C(N)=N[C@](C)(c2nc(NC(=O)c3cnc(OC(F)F)cn3)ccc2F)[C@H]2CCN=[S@]21=O` [Example 26BA, N-(6-((3aR,4R,8S)-6-amino-4,7,7-trimethyl-8-oxido-3,3a,4,7-tetrahydro-2H-isothiazolo[1,5-a][1,4]thiazin-4-yl)-5-fluoropyridin-2-yl)-5-(difluoromethoxy)pyrazine-2-carboxamide], for which the IC50 was 152 nM.

As to `CC1(C)C(N)=N[C@](C)(c2nc(NC(=O)c3cnc(OCC(F)F)cn3)ccc2F)[C@H]2CC(F)(F)CN=[S@@]21=O` [Example 46AA, N-(6-((4aR,5R,9R)-7-amino-3,3-difluoro-5,8,8-trimethyl-9-oxido-2,3,4,4a,5,8-hexahydro-[1,4]thiazino[2,1-f][1,2]thiazin-5-yl)-5-fluoropyridin-2-yl)-5-(2,2-difluoroethoxy)pyrazine-2-carboxamide], the IC50 amounted to 144 nM.

For the compound `COc1cnc(C(=O)Nc2ccc(F)c([C@@]3(C)N=C(N)C(C)(C)[S@]4(=O)=NCC[C@H]34)n2)cn1` [Example 16BA, N-(6-((3aR,4R,8S)-6-amino-4,7,7-trimethyl-8-oxido-3,3a,4,7-tetrahydro-2H-isothiazolo[1,5-a][1,4]thiazin-4-yl)-5-fluoropyridin-2-yl)-5-methoxypyrazine-2-carboxamide], the IC50 came out at 115 nM.

Regarding `Cc1cc(F)cnc1C(=O)Nc1ccc(F)c([C@@]2(C)N=C(N)C(C)(C)[S@@]3(=O)=NCC(F)(F)C[C@H]23)n1` [Example 39AA, N-(6-((4aR,5R,9R)-7-amino-3,3-difluoro-5,8,8-trimethyl-9-oxido-2,3,4,4a,5,8-hexahydro-[1,4]thiazino[2,1-f][1,2]thiazin-5-yl)-5-fluoropyridin-2-yl)-5-fluoro-3-methylpicolinamide], the IC50 is 114 nM.
